Experimental data from patent publication US20220323443A1, “COMBINATION THERAPY FOR CANCER TREATMENT” (TAKEDA PHARMACEUTICAL COMPANY LIMITED, priority 2019, published 2022).
Counter-ions that a name gives are not always drawn.

Experiments:
Test in all cases: In vitro combination study with Compound 1, Cell Titer-Glo (ATP) cell viability, 72 h;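 on Call, anti-proliferative effect of combination with Compound 1, A549: Ten-by-ten dose matrices of the two agents in duplicate, compounds added 16 h post-plating, activity relative to DMSO vehicle wells, call reflects synergy evaluation from luminescence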;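 on Call, anti-proliferative effect of combination with Compound 1, COLO205: Ten-by-ten dose matrices of both agents in duplicate plus single-agent dilutions, luminescent ATP read-out, percent activity per well relative to DMSO vehicle wells, synergy call from these matrices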;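 on Call, anti-proliferative effect of combination with Compound 1, H460: Ten-by-ten dose matrices of both drugs alongside single-agent dilutions, luminescence read 72 hours after compound addition, percent activity per well versus vehicle (DMSO) plate controls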;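 on Call, anti-proliferative effect of combination with Compound 1, HCT116: combination call from 10×10 dose matrices in duplicate, graded by synergy, with percent activity per well relative to DMSO vehicle controls on the same plate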;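 on Call, anti-proliferative effect of combination with Compound 1, SW620: Ten-by-ten dose matrices of both drugs in 384-well plates, luminescent ATP read-out, synergy evaluated against single-agent and DMSO vehicle controls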
Settings in all cases: 72 h
A549 cancer cells = assay type: cell-based
Procedure: (§1) Each combination pair was evaluated in an individual 384-well plate which contained variable doses of both compounds as single agents, as well as two, ten-by-ten matrices (in duplicate) that contained mixtures of the two test compounds. In brief, compounds were added to the cell test plates 16 hours after cell plating and then assessed for viability 72 hours later. Continuous cultures of tumor cells were maintained under standard cell culturing conditions (i.e. in a humidified chamber set at 37° C., containing atmosphere 5% carbon dioxide). […] Seventy-two hours after compound addition, ATP levels were measured to assess cell viability. Plating densities were chosen to ensure optimal linear growth over the 72 hour period.
(§2) Compound dilution and compound delivery to the assay plates were done on HighRes Robotic System (HighRes Biosolutions, Woburn, Mass., USA) with Echo™ Liquid Handler (Labcyte, Sunnyvale, Calif., USA). […] Next, these were used for compound transfer into cell assay plates. All wells were back-filled to give a constant percentage of DMSO.
(§3) The final DMSO concentration was held constant in all wells across the plate and was maintained at less than 0.5%. […] Cells treated with vehicle (DMSO) in two rows, or single compound serial dilutions in one plate columns/row served as the untreated control and single compound controls, respectively.
(§4) Compound activity in A549, COLO205, H460, HCT116, SW48, SW620 cancer cell lines was assessed using Cell Titer-Glo® (Promega [Madison, Wis., USA]). After 72 hours incubation, the plates were treated as per package insert protocol for the Promega Luminescence ATP Detection Systems. Briefly, 25 μL of cell lysis/substrate solution (provided in kit form) was added to each well and the plate was incubated at room temperature for 10 minutes. Luminescence was measured using a PHERAstar multi-label counter (BMG Labtech [Ortenberg, Germany]) or LEADseeker (GE Healthcare Life Sciences [Piscataway, N.J., USA]).
(§5) Numerical luminescence values were analyzed to generate EC50 curves and evaluate synergy. Raw Data reader files were uploaded along with automation workfiles that defined the plate and well contents. Percent activities were calculated for each well versus plate controls.
(§6) Each plate representing a single drug combination was analyzed separately. First, the viability measurements were normalized by scaling the data so that the median of the negative controls was 0 and the median of the positive controls was 100.
(§7) For the combination analysis, a response surface model was used to describe the relationship between the normalized viability and the drug concentrations. The data were fit to the model by minimizing the residual sum of squares. Based on the fitted response surface, plots of constant viability, called isobolograms, were produced.
(§8) The Combination Index and Nonlinear Blending were used as measures of drug synergy. To calculate Combination Index the 50% isobologram (which is the dose contour that has 50% viability) was used. […] A standard procedure was created to produce a call in order to characterize the viability effects for each combination (synergy, additivity, subadditivity, or antagonism). If the Combination Index existed then these measures were used to make the call.

H460 cancer cells = assay type: cell-based
Procedure: as §1, §2, §3, §4, §5, §6, §7, §8

HCT116 cancer cells = assay type: cell-based
SW620 cancer cells = assay type: cell-based
Procedure: as §1, §2, §3, §4, §5, §6, §7, §8

COLO205 cancer cells = assay type: cell-based, human
[1] = Table 5 drug combined with Compound 1
[2] = DNA damaging agent combined with Compound 1

Compound | Call, anti-proliferative effect of combination with Compound 1, A549 (A549 cancer cells; [1]) | Call, anti-proliferative effect of combination with Compound 1, H460 (H460 cancer cells; [1]) | Call, anti-proliferative effect of combination with Compound 1, HCT116 (HCT116 cancer cells; [1]) | Call, anti-proliferative effect of combination with Compound 1, SW620 (SW620 cancer cells; [1]) | Call, anti-proliferative effect of combination with Compound 1, COLO205 (COLO205 cancer cells; [1]) | Call, anti-proliferative effect of combination with Compound 1, A549 (A549 cancer cells; [2]) | Call, anti-proliferative effect of combination with Compound 1, H460 (H460 cancer cells; [2]) | Call, anti-proliferative effect of combination with Compound 1, HCT116 (HCT116 cancer cells; [2]) | Call, anti-proliferative effect of combination with Compound 1, SW620 (SW620 cancer cells; [2]) | Call, anti-proliferative effect of combination with Compound 1, COLO205 (COLO205 cancer cells; [2])
Cc1[nH]c2ccccc2c1CCNCc1ccc(/C=C/C(=O)NO)cc1 [Panobinostat] | Additivity (0.7 to 1.3) | Additivity (0.7 to 1.3) | Additivity (0.7 to 1.3) | Additivity (0.7 to 1.3) | Subadditivity (1.3 to 2) |  |  |  |  | 
C=CCNC1=C2C[C@@H](C)C[C@H](OC)[C@H](O)[C@@H](C)/C=C(\C)[C@H](OC(N)=O)[C@@H](OC)/C=C\C=C(/C)C(=O)NC(=CC1=O)C2=O [Compound 17-AAG] | Additivity (0.7 to 1.3) | Additivity (0.7 to 1.3) | Additivity (0.7 to 1.3) | Additivity (0.7 to 1.3) | Additivity (0.7 to 1.3) |  |  |  |  | 
C[C@H]1CCC/C=C/[C@@H]2C[C@H](O)C[C@H]2[C@H](O)/C=C/C(=O)O1 [Brefeldin A] |  |  |  |  |  | Additivity (0.7 to 1.3) | Additivity (0.7 to 1.3) | Additivity (0.7 to 1.3) | Additivity (0.7 to 1.3) | Subadditivity (1.3 to 2)
CS(=O)(=O)OCCCCOS(C)(=O)=O [Busulfan] |  |  |  |  |  |  |  |  |  | Synergy (0 to 0.7)
Tunicamycin |  | Additivity (0.7 to 1.3) | Synergy (0 to 0.7) | Additivity (0.7 to 1.3) | Additivity (0.7 to 1.3) |  |  |  |  | 
CC[C@]1(O)C[C@H]2CN(CCc3c([nH]c4ccccc34)[C@@](C(=O)OC)(c3cc4c(cc3OC)N(C=O)[C@H]3[C@@](O)(C(=O)OC)[C@H](OC(C)=O)[C@]5(CC)C=CCN6CC[C@]43[C@@H]65)C2)C1 [Vincristine sulfate] | Subadditivity (1.3 to 2) | Additivity (0.7 to 1.3) | Additivity (0.7 to 1.3) | Subadditivity (1.3 to 2) | Additivity (0.7 to 1.3) |  |  |  |  | 
Nc1nc(OCc2ccccc2)c2nc[nH]c2n1 [O6-Benzylguanine] |  |  |  |  |  |  |  |  |  | Additivity (0.7 to 1.3)
CS(=O)(=O)N1CCN(Cc2cc3nc(-c4cccc5[nH]ncc45)nc(N4CCOCC4)c3s2)CC1 [GDC-0941] | Additivity (0.7 to 1.3) | Synergy (0 to 0.7) | Synergy (0 to 0.7) | Additivity (0.7 to 1.3) | Additivity (0.7 to 1.3) |  |  |  |  | 
C/C=C(/C)C(=O)O[C@H]1C(C)=C2[C@H]([C@@H]1OC(=O)CCCCCCC)[C@@](C)(OC(C)=O)C[C@H](OC(=O)CCC)[C@@]1(O)[C@H]2OC(=O)[C@@]1(C)O [Thapsigargin] | Additivity (0.7 to 1.3) | Additivity (0.7 to 1.3) | Additivity (0.7 to 1.3) | Additivity (0.7 to 1.3) | Additivity (0.7 to 1.3) |  |  |  |  | 
Nc1cc(C(F)(F)F)c(-c2cc(N3CCOCC3)nc(N3CCOCC3)n2)cn1 [BKM-120] | Additivity (0.7 to 1.3) | Additivity (0.7 to 1.3) | Additivity (0.7 to 1.3) | Additivity (0.7 to 1.3) | Additivity (0.7 to 1.3) |  |  |  |  | 
CCNC(=O)c1noc(-c2cc(C(C)C)c(O)cc2O)c1-c1ccc(CN2CCOCC2)cc1 [AUY-922] | Additivity (0.7 to 1.3) |  | Additivity (0.7 to 1.3) | Additivity (0.7 to 1.3) | Additivity (0.7 to 1.3) |  |  |  |  | 
